Measurements published in ChEMBL document CHEMBL5727030, “Factor IXa inhibitors” (2018).

Biological target: Coagulation factor IX (Homo sapiens, UniProt P00740)
Experiment: Test substances were dissolved in buffer A (50 mM α,α,α-tris(hydroxymethyl) methylamine (Tris), 100 mM NaCl, 5 mM CaCl2, 15% (v/v) ethylene glycol, pH 8.0) were mixed with factor IXa (0.1 μg/ml final concentration). The enzyme reaction was started by addition of SPECTROFLUOR FIXa (100 μM final concentration).

Chain of Coagulation factor IX (P00740 47-191 limits assumed): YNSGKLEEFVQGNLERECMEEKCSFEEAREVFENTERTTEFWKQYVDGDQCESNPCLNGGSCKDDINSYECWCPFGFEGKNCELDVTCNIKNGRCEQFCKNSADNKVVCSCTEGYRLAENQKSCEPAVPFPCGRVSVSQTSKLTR
Chain of Coagulation factor IX (P00740 227-461 limits assumed): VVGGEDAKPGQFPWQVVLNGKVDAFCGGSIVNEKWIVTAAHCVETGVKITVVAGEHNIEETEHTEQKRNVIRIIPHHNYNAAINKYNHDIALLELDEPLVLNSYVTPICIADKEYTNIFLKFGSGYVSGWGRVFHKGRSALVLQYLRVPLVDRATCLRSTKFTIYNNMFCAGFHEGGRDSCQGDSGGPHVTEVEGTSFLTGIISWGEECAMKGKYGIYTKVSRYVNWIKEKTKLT

- IC50: < 100 nM
SMILES: Nc1noc2c(N3CCC(NC(=O)c4c(Cl)cc(-n5cnnc5)cc4Cl)(c4ccccc4)C3)cccc12 (stereo unspecified)
